Where no end group is shown, it is not given here.
Legend:
mouse melanoma cells = settings: for cell death / cytotoxicity: 3 millimolar, incubation for 3 days, MTT (FIG. 4); for cytotoxicity to mouse melanoma (figure): treated with 3 millimolar, figure vs untreated
Protocol: (§1) Human and mouse melanoma cell lines as wells as Fibroblasts were cultured using DMEM with L-glutamine, 10 percent FBS and 1 percent P/S (Thermo Fisher Scientific, NY). Human melanocytes were cultured using medium 254 (Thermo Fisher Scientific, NY) and incubated at 37 degrees Celsius in a humidified 5 percent CO2 chamber.
(§2) Proliferation rates were determined using a TACS® MTT Cell Proliferation Kit (R&D Systems, Minneapolis, Minn.). Cells were seeded at 2.5×10 ^4 per well in 96-well plates in a humidified atmosphere with 5 percent CO2 at 37 degrees Celsius. Twenty-four hours later, oligopeptides or hydroquinone were added to the corresponding wells at varying concentrations (0.03, 0.1, 0.3, 1, and 3 millimolar (mM)), and cultures were incubated for 72 hours. The remainder of the procedure was performed following the manufacturer's protocol.

[1] = tested on: human metastatic melanoma line harboring the V600E BRAF mutation; assay: MTT cell proliferation and viability assay, human melanoma cells
Protocol: as §1, §2

[2] = tested on: human epidermal keratinocytes; assay: Cytotoxicity towards human epidermal keratinocytes (figures); format: cell-based; settings: normal human epidermal keratinocytes, 3 millimolar in figure
Protocol: Human neonatal epidermal keratinocytes were cultured in Epilife media containing 60 μM of calcium chloride (Thermo Fisher Scientific, NY). All cell cultures were incubated in a humidified chamber at 37 degrees Celsius and 5 percent CO2.
The figures show human epidermal keratinocytes with 3 millimolar P5, human epidermal keratinocytes with 3 millimolar P14, and human epidermal keratinocytes with 3 millimolar HQ.

[3] = tested on: Human Primary Melanocytes; assay: Trypan blue dye exclusion toxicity on human primary melanocytes; format: cell-based; settings: for cell death: 1 millimolar, 72 hours of incubation, melanocytes; for % toxicity: trypan blue
Protocol: (§3) Cellular toxicity was measured using a trypan blue dye exclusion assay. Cells were cultured in 6-well plates at a density of 4×10^5 cells per well. […] After 24 hours, an aliquot was taken and cells counted using a hemacytometer. Cytotoxicity was measured according to the following formula: […]
(§4) The same procedure was repeated after 3 and 6 days of incubation.

Human Fibroblasts = assay: Trypan blue dye exclusion toxicity on human fibroblasts; format: cell-based; settings: for cell death: 1 millimolar, 72 hours of incubation, fibroblasts; for % toxicity: trypan blue
Protocol: as §3, §4

Row | Compound | cell death / cytotoxicity (mouse melanoma cells) [%] | cytotoxicity to mouse melanoma (figure) (mouse melanoma cells) | cytotoxic effects towards keratinocytes [2] | cell death [3] [%] | % toxicity ([3]; Day 1, 30 μM) [%] | % toxicity ([3]; Day 1, 100 μM) [%] | % toxicity ([3]; Day 1, 300 μM) [%] | % toxicity ([3]; Day 1, 1000 μM) [%] | % toxicity ([3]; Day 3, 30 μM) [%] | % toxicity ([3]; Day 3, 100 μM) [%] | % toxicity ([3]; Day 3, 300 μM) [%] | % toxicity ([3]; Day 3, 1000 μM) [%] | % toxicity ([3]; Day 6, 30 μM) [%] | % toxicity ([3]; Day 6, 100 μM) [%] | % toxicity ([3]; Day 6, 300 μM) [%] | % toxicity ([3]; Day 6, 1000 μM) [%] | cell death (Human Fibroblasts) [%] | % toxicity (Human Fibroblasts; Day 1, 30 μM) [%] | % toxicity (Human Fibroblasts; Day 1, 100 μM) [%] | % toxicity (Human Fibroblasts; Day 1, 300 μM) [%] | other results
1 | RRFVLL [P14, RRFVLL] | 49 | selectively cytotoxic | very little to no cytotoxic effects |  |  |  |  |  |  |  |  |  |  |  |  |  |  |  |  |  | cytotoxicity ([1]; 1 millimolar, human melanoma cells, MTT (FIG. 5)): ~36%; cytotoxicity to human melanoma (figure) ([1]; treated with 3 millimolar, figure vs untreated): selectively cytotoxic
2 | CC(C)CC(NC(=O)C1CCCN1)C(=O)NCC(=O)O (centres unmarked) [P5, PLG] |  | selectively cytotoxic | very little to no cytotoxic effects | 9 | 0.1 | 0.1 | 2.2 | 7.8 | 0.1 | 0.1 | 2.4 | 8.7 | 0.1 | 0.1 | 2.7 | 9.3 | 3 | 0.1 | 0.1 | 0.1 | % toxicity ([3]; Day 1, 3000 μM): 13.3%; % toxicity ([3]; Day 3, 3000 μM): 13.5%; % toxicity ([3]; Day 6, 3000 μM): 14.5%; % toxicity (Human Fibroblasts; Day 1, 10 μM): 0.1%; % toxicity (Human Fibroblasts; Day 1, 1000 μM): 2.1%; % toxicity (Human Fibroblasts; Day 3, 10 μM): 0.1%; % toxicity (Human Fibroblasts; Day 3, 30 μM): 0.1%; % toxicity (Human Fibroblasts; Day 3, 100 μM): 0.1%; % toxicity (Human Fibroblasts; Day 3, 300 μM): 0.5%; % toxicity (Human Fibroblasts; Day 3, 1000 μM): 2.6%; % toxicity (Human Fibroblasts; Day 6, 10 μM): 0.1%; % toxicity (Human Fibroblasts; Day 6, 30 μM): 0.1%; % toxicity (Human Fibroblasts; Day 6, 100 μM): 0.1%; % toxicity (Human Fibroblasts; Day 6, 300 μM): 1.1%; % toxicity (Human Fibroblasts; Day 6, 1000 μM): 3.9%
3 | Oc1ccc(O)cc1 [HQ, Hydroquinone, reference compound] | 90 |  | indiscriminate cytotoxicity | 100 | 41 | 98 | 100 | 100 | 53 | 100 | 100 | 100 | 60 | 100 | 100 | 100 | 100 | 3 | 17 | 27 | % toxicity ([3]; Day 1, 10 μM): 27%; % toxicity ([3]; Day 3, 10 μM): 29%; % toxicity ([3]; Day 6, 10 μM): 35%; % toxicity (Human Fibroblasts; Day 1, 1000 μM): 100%; % toxicity (Human Fibroblasts; Day 1, 3000 μM): 100%; % toxicity (Human Fibroblasts; Day 3, 30 μM): 9%; % toxicity (Human Fibroblasts; Day 3, 100 μM): 20%; % toxicity (Human Fibroblasts; Day 3, 300 μM): 44%; % toxicity (Human Fibroblasts; Day 3, 1000 μM): 100%; % toxicity (Human Fibroblasts; Day 3, 3000 μM): 100%; % toxicity (Human Fibroblasts; Day 6, 30 μM): 15%; % toxicity (Human Fibroblasts; Day 6, 100 μM): 30%; % toxicity (Human Fibroblasts; Day 6, 300 μM): 54%; % toxicity (Human Fibroblasts; Day 6, 1000 μM): 100%; % toxicity (Human Fibroblasts; Day 6, 3000 μM): 100%; cytotoxicity ([1]; human, 72 h, 1 mM): ~80%

Reference: patent US20230100707A1, “MELANOMA THERAPEUTICS” (ESCAPE THERAPEUTICS, INC., priority 2020, published 2023)
